In brackets after ≈: the same amount, converted by molar mass.

Here are results for 51 compounds from PubChem BioAssay AID1996.

For this data set the following is noted: buffer; pH 7.4; 200.0 µM.
As a reminder, the kinetic solubility is solubility judged after dilution from a stock solution rather than from solid. `Cc1cccc(C(=O)N/C(=C\c2ccco2)C(=O)N2CCCCCC2)c1` yielded a kinetic solubility of 50.3 µg/mL (≈ 143 µM).

`Cc1nc([N+](=O)[O-])cn1CC(=O)Nc1ccc(Cl)cc1` yielded a kinetic solubility of 6.1 µg/mL (≈ 20.7 µM).

`CCC(CC)NC(=O)c1cccc(Oc2ccccc2)c1` gave a kinetic solubility of 5.2 µg/mL (≈ 18.4 µM).

The compound `O=C(O)CC1(CC(=O)NCc2ccccn2)CCCCC1` registered a kinetic solubility of more than 43.6 µg/mL.

Compound `CC(C1CC1)N(C(=O)c1ccccc1[N+](=O)[O-])c1ccccc1` (stereo unspecified) yielded a kinetic solubility of 13 µg/mL (≈ 41.9 µM).

`Cc1cc(C)c(C)c(S(=O)(=O)NCC(=O)Nc2ccccc2F)c1C` gave a kinetic solubility of 12.2 µg/mL (≈ 33.5 µM).

In turn, `CC(=O)Nc1cccc(OCCCNC(=O)c2ccc(F)cc2)c1` had a kinetic solubility of 38.9 µg/mL (≈ 118 µM).

The compound `O=C(C[n+]1ccc(C(=O)c2ccccc2)cc1)Nc1ccccc1OC(F)F.[Cl-]` returned a kinetic solubility of 59.4 µg/mL.

`COc1cccc(C=Nc2ccc3c(c2)CCC3)c1O`: the solubility (kinetic) amounted to 26.8 µg/mL (≈ 100 µM).

For `O=c1[nH]c(=S)[nH]cc1S(=O)(=O)c1cccc(Cl)c1`, the solubility (kinetic) is more than 45.4 µg/mL.

Take `Nc1nc(Cl)cc(Oc2ccc(Cl)cc2)n1`: the solubility (kinetic) was 1 µg/mL (≈ 3.9 µM).

Turning to `Cc1ccnc(NC(=O)c2ccc3c(c2)NC(=O)C(C)S3)c1` (stereo unspecified), the kinetic solubility stood at 6.6 µg/mL (≈ 21.1 µM).

`Cc1cccc(NC(=O)CN2C(=O)C(C)Oc3ccccc32)n1` (stereo unspecified) came in with a kinetic solubility of more than 46.7 µg/mL.

`O=C(O)CSCc1nc2scc(-c3ccccc3)c2c(=O)[nH]1` came in with a solubility (kinetic) of more than 49.9 µg/mL.

For the compound `CC1c2cc3c(cc2CCN1CC(=O)Nc1ccccc1)OCCCO3` (stereo unspecified), the kinetic solubility was 3.9 µg/mL (≈ 11.1 µM).

`Cc1ccc(S(=O)(=O)N(C)CC(=O)N2CC(C)OC(C)C2)cc1` (stereo unspecified) yielded a kinetic solubility of more than 51.1 µg/mL.

In the case of `N#Cc1c(N)nc2c(c1-c1ccc(F)cc1)CCC2`, the solubility (kinetic) was determined as 3.7 µg/mL (≈ 14.6 µM).

For `Cc1ccc(C(=O)NCC(=O)NCc2ccc(Cl)cc2)s1`, the solubility (kinetic) came out at 7.4 µg/mL (≈ 22.9 µM).

Regarding `CCOC(=O)C(NC(C)=O)(NC(C)C)C(F)(F)F` (stereo unspecified), the kinetic solubility amounted to 2.2 µg/mL (≈ 8.14 µM).

Compound `CNC(=O)CSc1nc2ccccc2c(=O)n1C1CCCCC1` registered a kinetic solubility of more than 49.7 µg/mL.

In turn, `CCCCN(C/C=C/c1ccccc1OC)Cc1ccccc1` returned a solubility (kinetic) of 3.5 µg/mL (≈ 11.3 µM).

For `CC(C)(C)C(=O)NC(CC(=O)O)c1ccccc1` (stereo unspecified), the solubility (kinetic) is more than 37.4 µg/mL.

`O=C(NCc1ccccc1)c1ccc[n+]([O-])c1` yielded a solubility (kinetic) of more than 34.2 µg/mL.

Compound `CC(C)CC(Nc1ncnc2scc(-c3ccccc3)c12)C(=O)O` (stereo unspecified) had a solubility (kinetic) of more than 51.2 µg/mL.

Take `CC(=O)c1ccc(NC(=O)C2(c3ccccc3)CC2(Cl)Cl)cc1` (stereo unspecified): the solubility (kinetic) was 19.6 µg/mL (≈ 56.3 µM).

For `O=C1CC(N2CCN(c3ccc(F)cc3)CC2)C(=O)N1Cc1ccccc1` (stereo unspecified), the solubility (kinetic) was 48.2 µg/mL (≈ 131 µM).

In the case of `Cc1cccc(N2CCN(Cc3nc(C4CC4)no3)CC2)n1`, the solubility (kinetic) worked out at 37.8 µg/mL (≈ 126 µM). The solubility kinetic values of the last two compounds are within 1.5-fold of each other.

In turn, `O=c1[nH]c2ccc([N+](=O)[O-])cc2nc1/C=C(\O)c1ccccc1` gave a solubility (kinetic) of 2.3 µg/mL (≈ 7.44 µM).

`CCOc1ccc(-c2nc(CCl)cs2)cc1.Cl` had a kinetic solubility of 8.5 µg/mL.

In turn, `Cc1cc(=O)[nH]c(SCC(=O)N2CCCC2)n1` came in with a solubility (kinetic) of more than 38 µg/mL.

`Cc1ccc(-c2noc(CCC(=O)NC3CC3)n2)cc1` yielded a solubility (kinetic) of more than 40.7 µg/mL.

Regarding `CCOCCCNC(=O)/C(C#N)=C/c1ccccc1F`, the solubility (kinetic) is more than 41.4 µg/mL.

The compound `CC(=O)c1ccccc1NC(=O)COC(=O)CCC1CCCC1` had a solubility (kinetic) of 7.7 µg/mL (≈ 24.3 µM).

The compound `COc1ccccc1C(=O)NC(=O)COC(=O)c1nccnc1N` had a solubility (kinetic) of more than 49.5 µg/mL.

In the case of `O=[N+]([O-])c1cccc(S(=O)(=O)N2CN(c3ccc(Br)cc3)c3nc4ccccc4nc32)c1`, the kinetic solubility came out at 1.6 µg/mL (≈ 3.12 µM).

`CCC(=O)c1ccc(OCC(=O)NCCc2ccccn2)cc1` came in with a solubility (kinetic) of more than 46.9 µg/mL.

The compound `O=C(NC1CCCC1)c1cc(=O)[nH]c2ccccc12` yielded a solubility (kinetic) of 33.6 µg/mL (≈ 131 µM).

In the case of `COCCNc1ncnc2c1nc1n2CCCC1`, the kinetic solubility was more than 37.1 µg/mL.

As for `CCCc1cnc(N2CCN(C(=O)c3ccccc3)CC2)nc1`, the solubility (kinetic) is more than 46.6 µg/mL.

`CC(=O)c1cccc(NC(=O)C2=CN3CCS(=O)(=O)N=C3C=C2)c1` registered a solubility (kinetic) of 48.1 µg/mL (≈ 139 µM).

Compound `COc1ccccc1NS(=O)(=O)c1cc(NC(=O)c2ccc(Cl)nc2)ccc1N1CCCC1` registered a solubility (kinetic) of 2.1 µg/mL (≈ 4.31 µM).

Consider `CC(NC(=O)C(=O)NCC1CCCO1)c1ccccc1` (stereo unspecified), for which the kinetic solubility was more than 41.5 µg/mL.

As for `CCOP(=O)(OCC)C(NC(=O)Nc1ccc(C)cc1)C(N)=O` (stereo unspecified), the solubility (kinetic) was more than 51.5 µg/mL.

For the compound `CC1CCc2sc(C(=O)Nc3ccc(C(N)=O)cc3)cc2C1` (stereo unspecified), the solubility (kinetic) stood at 3.4 µg/mL (≈ 10.8 µM).

`CCOC(=O)c1c(C)[nH]c(C(=O)NCC(c2ccco2)N2CCCCC2)c1C` (stereo unspecified) displayed a kinetic solubility of 2 µg/mL (≈ 5.16 µM).

Consider `CC(C)(C)NCC(O)c1cc(Cl)c(N)c(Cl)c1.Cl` (stereo unspecified), for which the kinetic solubility amounted to 46.5 µg/mL.

As for `CN(CCCC(=O)N1CCN(c2ncccn2)CC1)S(=O)(=O)c1ccc(F)cc1`, the kinetic solubility is more than 63.2 µg/mL.

`O=C1c2cccc3cc([N+](=O)[O-])cc(c23)C(=O)N1CC1CCCO1` (stereo unspecified) registered a solubility (kinetic) of 5.7 µg/mL (≈ 17.5 µM).

Compound `O=C(CS(=O)(=O)Cc1ccccc1)Nc1ccc2c(c1)OCO2` yielded a kinetic solubility of 15.7 µg/mL (≈ 47.1 µM).

`CC(NCc1cccnc1)c1ccccc1` (stereo unspecified) gave a kinetic solubility of more than 31.8 µg/mL.

`COCCCNC(=O)C1CC(=O)N(CCc2ccc(F)cc2)C1` (stereo unspecified) had a kinetic solubility of more than 48.4 µg/mL.
